Measured values from patent US20230322722A1, “MODULATORS OF MYC FAMILY PROTO-ONCOGENE PROTEIN” (Nalo Therapeutics, priority 2020, published 2023).

Experiments:
Type in all cases: cell-based
[1] = target: T1, MycN protein (Homo sapiens, UniProt P04198); experiment: Degradation of MycN protein, Western blot, SKNBE2 cells (Example 160)
T1 construct: either 2×10^6 of L-363 (human leukemia cell line) or SKNBE2 (neuroblastoma cell line) cells; endogenous in cells; host or cells: SKNBE2 / SK-N-BE(2) neuroblastoma cells
T1 sequence (P04198 1-464): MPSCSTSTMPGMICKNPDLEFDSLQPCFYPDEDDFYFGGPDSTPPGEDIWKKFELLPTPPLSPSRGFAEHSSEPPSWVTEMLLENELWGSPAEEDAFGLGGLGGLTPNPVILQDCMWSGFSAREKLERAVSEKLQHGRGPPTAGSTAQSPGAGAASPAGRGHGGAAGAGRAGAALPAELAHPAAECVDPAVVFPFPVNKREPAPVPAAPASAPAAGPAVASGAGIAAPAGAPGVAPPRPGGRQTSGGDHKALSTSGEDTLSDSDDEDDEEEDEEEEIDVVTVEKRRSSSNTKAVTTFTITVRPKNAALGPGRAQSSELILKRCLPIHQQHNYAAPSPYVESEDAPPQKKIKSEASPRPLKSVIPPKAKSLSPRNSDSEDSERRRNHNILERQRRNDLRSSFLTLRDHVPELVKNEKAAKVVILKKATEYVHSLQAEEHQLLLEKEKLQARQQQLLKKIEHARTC
Description: In a T150 flask was plated either 2×10^6 of L-363 (human leukemia cell line) or SKNBE2 (neuroblastoma cell line) cells in a total of 30 mL containing Roswell Park Memorial Institute (RPMI) 1640 Medium (Thermo Fisher, Cat. #11875-085), 10% Fetal Bovine Serum (FBS, Thermo Fisher: Cat. #10437-028), 1% Penicillin/streptomycin (Thermo Fisher: Cat. #10378016), and 1% Amophotericin B (Thermo Fisher, Cat. #15290026). The cells were split every 72 hours by reseeding the L-363 or SKNBE2 cells, and the passage number was noted. It is noteworthy that cell cultures that were above 40 passages were not used, and most experiments were done with cells of less than 30 passages.
In a 6-well cell culture plate, a total of 3 mL of either 1×10^6 cells/mL of L-363 or SKNBE2 cells were seeded, resulting in a total of 3×10^6 cells per well. To each well containing 3 mL of either L-363 or SKNBE2 cell line was added 6 uL of MycN modulating compound (1 mM) and the resulting plate was shaken from left to right, and not swirled. After 6 hours, the cells were placed in a 15 mL falcon tube and spun at 500 Gs at 4° C. in a swinging bucket centrifuge. The medium was then carefully removed without disturbing the pellet. The pellet was then washed with 3 mLs of chilled phosphate buffered saline (PBS) and subjected to the spin cycle. PBS was then removed and the pellet was lysed in 200 uL of radioimmunoprecipitation (RIPA) lysis buffer (Thermo Fisher: Cat. #899000) that is supplemented with protease and phosphatase inhibitors (Thermo Fisher: Cat. #A32959). The cell lysate was then subjected to spinning in a centrifuge for 10 minutes at 13000 G at 4° C. The supernatant was then carefully transferred to a fresh eppendorf tube without disturbing the pellet (˜180 uL). The protein concentration of the cell lysate was then determined by using a bicinchoninic acid (BCA assay) according to manufacturer's protocol (Thermo Fisher: Cat. #23227).
Cell lysate, approximately 25 ug-30 ug, was loaded per well in a 4-20% polyacrylamide gel (Biorad. Cat. #5671094). After running the dye front off of the gel, the gel was transferred to a nitrocellulose membrane (Biorad: Cat. #1704159) using the transblot turbo system (Biorad: Cat. #1704150) according to manufacturer's protocol. After transferring for 30 minutes, the membrane was blocked with 5% BSA for 1 hour at room temperature. The BSA was then washed off and the primary antibody of choice (1:500) was added, and the membrane was incubated with the primary antibody at 4° C. for overnight. The next morning, the primary antibody was removed and the membrane was washed with 1×-TBST for 10 minutes and repeated three more times. Following the last wash, a secondary antibody (Molecular Devices. Cat. #R8209 or R8208) was added at 1:5000 dilution and incubated for 1 hour at room temperature. Following the incubation with the secondary antibody, the membrane was washed with 1×-TBST for 10 minutes and repeated three more times. Following the last wash, the membrane was washed with de-ionized water twice and dried for at least two hours. Once the membrane is completely dry, the Molecular Devices Spectra Max western system was used to observe the bands. The western image was saved and the band density was measured with ImageJ software.

[2] = target: T2, MycN protein (n-myc) (Homo sapiens, UniProt P04198); experiment: Degradation of MycN protein, 24 h treatment, JESS Western, SK-N-BE(2) cells (Example 161); conditions: SKNBE2 cells
T2 construct: either 2×10^6 of L-363 (human leukemia cell line) or SKNBE2 (neuroblastoma cell line) cells; endogenous in cells; host or cells: SKNBE2 / SK-N-BE(2) neuroblastoma cells
T2 sequence (P04198 1-464): T1 sequence (P04198 1-464)
Description: (§1) For L363 cells (suspension), 1E6 cells were plated into each well of a 6 well plate. For SK-N-BE(2) cells (adherent), 5E5 cells were plated into each well of a 6 well dish. […] All compounds were diluted to 10 mM in DMSO. Cells were treated with the compound for 24 hrs, then for both cell types, media containing cells were removed from wells into a 15 ml centrifuge tube, and remaining adherent SK-N-BE(2) cells were also scraped from the wells into the appropriate tubes. Tubes were centrifuged, cells were washed with PBS then re-centrifuged to pellet cells. A RIPA buffer cocktail was added to the cells on ice for 5 mins. Cell lysates were clarified by centrifugation and stored at −80 degrees until required. BCA assay was performed on each lysate to determine the protein concentration.
(§2) For validation studies of antibodies, lysates and antibodies were used at a number of concentrations (Lysates: 2, 1, 0.2 mg/ml; Antibodies: 1 in 50, 1 in 200 dilution). Once an appropriate lysate concentration and antibody concentration was determined, samples were screened in the JESS technology (Protein Simple, San Jose, CA—https://www.proteinsimple.com/jess.html).
(§3) Target protein antibodies (n-myc and c-myc) were detected in the chemi-luminescence channel and loading controls (tubulin and GAPDH) were detected using a Near Infra Red (NIR) labeled secondary antibody.
(§4) For SK-N-EB2 adherent cells, 5E5 cells in 1.9 mls media were plated into 6 well dishes and incubated for 24 hrs. […] Cells were scrapped off the plate, centrifuged, washed with PBS, centrifuged, then a RIPA buffer cocktail added to the cells (100 ul), centrifuged and stored at −80 for later analysis. For L363 suspension cells, 1E6 cells were plated into […] (950 ul media) and incubated for 24 hrs. […] Cells were aspirated into tubes, centrifuged, washed with PBS, centrifuged, then a RIPA buffer cocktail added to the cells (100 ul), centrifuged and stored at −80 for later analysis.
(§5) For Western blot, a BCA (total protein) assay was run on all samples, these were then run in batches of 5 compounds plus control (DMSO) on each Western blot run—n-myc and c-myc were run in separate experiments in the chemiluminescence channel. Both tubulin and GAPDH were run as loading controls in all lanes in the near infra red channel.

[3] = target: T3, MycC protein (c-myc) (Homo sapiens, UniProt P01106); experiment: Degradation of MycC protein, 24 h treatment, JESS Western, L363 cells (Example 161); conditions: L-363 cells
T3 construct: either 2×10^6 of L-363 (human leukemia cell line) cells; endogenous in cells; host or cells: L-363 / L363 human leukemia cells
T3 sequence (P01106 whole entry): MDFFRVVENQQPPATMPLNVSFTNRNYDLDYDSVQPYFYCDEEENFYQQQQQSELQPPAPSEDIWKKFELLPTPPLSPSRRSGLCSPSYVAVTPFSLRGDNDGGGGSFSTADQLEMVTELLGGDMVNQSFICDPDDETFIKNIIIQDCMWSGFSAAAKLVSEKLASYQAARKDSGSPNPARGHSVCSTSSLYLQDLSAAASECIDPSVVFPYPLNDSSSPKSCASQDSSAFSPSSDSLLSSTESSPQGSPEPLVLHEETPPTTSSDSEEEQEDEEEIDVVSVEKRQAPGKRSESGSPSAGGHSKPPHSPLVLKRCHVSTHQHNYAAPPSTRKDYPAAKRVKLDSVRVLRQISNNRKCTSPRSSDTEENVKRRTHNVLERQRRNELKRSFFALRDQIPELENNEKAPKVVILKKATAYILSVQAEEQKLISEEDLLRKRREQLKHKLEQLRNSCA
Description: as §1, §2, §3, §4, §5

CN(c1nccc(Nc2cc(C3CCCC3)[nH]n2)n1)[C@H]1CC[C@H](NC(=O)C2Cc3ccccc3C2)CC1 [Compound 105, N-((1R,4R)-4-((4-((5-cyclopentyl-1H-pyrazol-3-yl)amino)pyrimidin-2-yl)(methyl)amino)cyclohexyl)-2,3-dihydro-1H-indene-2-carboxamide]
inhibition at 2 µM ([1]; SKNBE2, 6 h): 50 to 79%

CN(c1nccc(Nc2cc(C3CCCC3)[nH]n2)n1)C1CCC(CC(=O)NC2Cc3ccc(C#N)cc3C2)CC1 (stereo not drawn) [Compound 102, N-(5-cyano-2,3-dihydro-1H-inden-2-yl)-2-(4-((4-((5-cyclopentyl-1H-pyrazol-3-yl)amino)pyrimidin-2-yl)(methyl)amino)cyclohexyl)acetamide]
inhibition at 2 µM ([1]; 6 h): 80 to 100%

CN(c1nccc(Nc2cc(C3CC3)[nH]n2)n1)[C@H]1CC[C@H](NC(=O)c2cccc(C(F)(F)F)c2)CC1 [Compound 107, N-((1R,4R)-4-((4-((5-cyclopropyl-1H-pyrazol-3-yl)amino)pyrimidin-2-yl)(methyl)amino)cyclohexyl)-3-(trifluoromethyl)benzamide]
inhibition at 2 µM ([1]; SKNBE2, 6 h): 50 to 79%

CN(c1nccc(Nc2cc(C3CC3)[nH]n2)n1)C1CC2(C1)CN(S(=O)(=O)c1cn3c(n1)CCCC3)C2 [Compound 36, N4-(5-Cyclopropyl-1H-pyrazol-3-yl)-N2-methyl-N2-(2-((5,6,7,8-tetrahydroimidazo[1,2-a]pyridin-2-yl)sulfonyl)-2-azaspiro[3.3]heptan-6-yl)pyrimidine-2,4-diamine]
inhibition at 1 µM [2]: < 20% | inhibition at 3 µM [2]: < 20% | inhibition at 6 µM [2]: < 20%

CN(c1nccc(Nc2cc(C3CCCC3)[nH]n2)n1)[C@H]1CC[C@H](NC(=O)Cc2cccc(C(F)(F)F)c2)CC1 [Compound 103, N-((1R,4R)-4-((4-((5-cyclopentyl-1H-pyrazol-3-yl)amino)pyrimidin-2-yl)(methyl)amino)cyclohexyl)-2-(3-(trifluoromethyl)phenyl)acetamide]
inhibition at 2 µM ([1]; SKNBE2, 6 h): 50 to 79%

CN1CCN(C(=O)CN2CC3(CC(N(C)c4nccc(Nc5cc(C6CC6)[nH]n5)n4)C3)C2)CC1 [Compound 30, 2-(6-((4-((5-Cyclopropyl-1H-pyrazol-3-yl)amino)pyrimidin-2-yl)(methyl)amino)-2-azaspiro[3.3]heptan-2-yl)-1-(4-methylpiperazin-1-yl)ethan-1-one]
inhibition at 0.5 µM ([3]; 0.5 μM): 20 to 49% | inhibition at 1 µM ([3]; 1 μM): 20 to 49% | inhibition at 3 µM ([3]; 3 μM): < 20% | inhibition at 6 µM [3]: < 20%

COCCOCCN1CC2(CC(N(C)c3nccc(Nc4cc(C5CC5)[nH]n4)n3)C2)C1 [Compound 22, N4-(5-Cyclopropyl-1H-pyrazol-3-yl)-N2-(2-(2-(2-methoxyethoxy)ethyl)-2-azaspiro[3.3]heptan-6-yl)-N2-methylpyrimidine-2,4-diamine]
inhibition at 0.5 µM ([2]; 0.5 μM): < 20% | inhibition at 1 µM [2]: 20 to 49% | inhibition at 3 µM [2]: 20 to 49% | inhibition at 6 µM [2]: 20 to 49%

CN(c1nccc(Nc2cc(C3CCCC3)[nH]n2)n1)[C@H]1CC[C@H](NC(=O)CC2Cc3ccccc3C2)CC1 [Compound 106, N-((1R,4R)-4-((4-((5-cyclopentyl-1H-pyrazol-3-yl)amino)pyrimidin-2-yl)(methyl)amino)cyclohexyl)-2-(2,3-dihydro-1H-inden-2-yl)acetamide]
inhibition at 2 µM ([1]; SKNBE2, 6 h): 20 to 49%

CN(c1nccc(Nc2cc(C3CC3)[nH]n2)n1)[C@H]1CC[C@H](NC(=O)C2Cc3ccccc3C2)CC1 [Compound 101, N-((1R,4R)-4-((4-((5-cyclopropyl-1H-pyrazol-3-yl)amino)pyrimidin-2-yl)(methyl)amino)cyclohexyl)-2,3-dihydro-1H-indene-2-carboxamide]
inhibition at 2 µM ([1]; SKNBE2, 6 h): 50 to 79%

CN(c1nccc(Nc2cc(C3CC3)[nH]n2)n1)[C@H]1CC[C@H](NC(=O)N2Cc3ccccc3C2)CC1 [Compound 11, N-((1R,4R)-4-((4-((5-cyclopropyl-1H-pyrazol-3-yl)amino)pyrimidin-2-yl)(methyl)amino)cyclohexyl)isoindoline-2-carboxamide]
inhibition at 2 µM ([1]; SKNBE2, 6 h): 50 to 79%

CN(c1nccc(Nc2cc(C3CC3)[nH]n2)n1)[C@H]1CC[C@H](NC(=O)Cc2cccc(C#N)c2)CC1 [Compound 114, 2-(3-cyanophenyl)-N-((1R,4R)-4-((4-((5-cyclopropyl-1H-pyrazol-3-yl)amino)pyrimidin-2-yl)(methyl)amino)cyclohexyl)acetamide]
inhibition at 2 µM ([1]; SKNBE2, 6 h): 50 to 79%

CN(c1nccc(Nc2cc(C3CC3)[nH]n2)n1)[C@H]1CC[C@H](NC(=O)Cc2cccc(C(F)(F)F)c2)CC1 [Compound 104, N-((1R,4R)-4-((4-((5-cyclopropyl-1H-pyrazol-3-yl)amino)pyrimidin-2-yl)(methyl)amino)cyclohexyl)-2-(3-(trifluoromethyl)phenyl)acetamide]
inhibition at 2 µM ([1]; SKNBE2, 6 h): 20 to 49%

CN(c1nccc(Nc2cc(C3CC3)[nH]n2)n1)C1CC2(C1)CN(CC(=O)Nc1ccc(S(C)(=O)=O)cc1)C2 [Compound 24, 2-(6-((4-((5-Cyclopropyl-1H-pyrazol-3-yl)amino)pyrimidin-2-yl)(methyl)amino)-2-azaspiro[3.3]heptan-2-yl)-N-(4-(methylsulfonyl)phenyl)acetamide]
inhibition at 6 µM [3]: 80 to 100%
